Assay results published in patent publication US20210069082A1, “SPIROKETALS AND USES THEREOF” (Memorial Sloan-Kettering Cancer Center, priority 2017, published 2021).
Like-named read-outs stand apart in the source and are kept apart here.

Legend:
[1] = cyclic voltametry, Aponick and coworkers; cited from earlier work
rat mesangial cells [2] = details: cited from earlier work; for Antioxidant activity as reported (in words): high glucose-induced ROS, rat mesangial cells, literature
mesangial cells = details: through inhibition of NADPH oxidase, literature; cited from earlier work
[3] = Chemical reactivity towards reactive oxygen and nitrogen species; type: physicochemical; details: equimolar concentrations
rat mesangial cells [4] = assay: Inhibition of high glucose-induced ROS production in rat mesangial cells (DCFH-DA fluorescence); type: cell-based; details: for IC50: 3 h, DCFH-DA 50 μM, mean of three experiments, s.d. of log IC50 in brackets; for Antioxidant activity against hyperglycemia-induced ROS generation (in words): concomitant treatment with compound plus high glucose for 3 h, DCFDA assay; for Concentration required for complete inhibition (ROS production reduced to normal levels): high glucose-induced ROS, rat mesangial cells
Procedure: The inhibitory effects of the pyrrolomorpholine spiroketals on high glucose-induced oxidative stress were evaluated in rat mesangial cells (RMC). The rat mesangial cells, obtained from the American Type Culture Collection (CRL-2573), were cultured at 37° C. in Dulbecco's modified Eagle's medium (DMEM) containing 5.6 mM glucose (normal glucose), 10% fetal calf serum (FCS), nonessential amino acids, penicillin/streptomycin under a humidified atmosphere of 95% air and 5% CO2. Rat mesangial cells were seeded in 96-well plates approximately 24 hours before the start of all experiments. For more details on the antioxidant activity assays, see, e.g., Wang et al. Free Radical Biol. Med. 1999, 27, 612-616; Magalhães et al. Anal. Chim. Acta. 2008, 613, 1-19; Peng et al. Org. Lett. 2010, 12, 4932-4935; Hung et al. Am. J. Nephrol. 2009, 29, 192-202.
For each experiment, rat mesangial cells were incubated with pyrrolomorpholine spiroketal compound (0.01, 0.03, 0.1, 0.3, 1, 3, 10, 30, 100, 200 μM) or 1 mM N-acetyl cysteine (NAC, positive control) in the presence of either 5.6 mM (normal glucose, NG) or 30 mM (high glucose, HG) D-glucose for 3 h. RMC were then incubated with 50 μM dichloro-dihydro-fluorescein diacetate (DCFH-DA) for 45 min, and intracellular production of ROS was detected by 2′,7′-dichlorofluorescein (DCF) fluorescence (485 nm excitation, 530 emission) as measured by a microplate reader (SpectraMax M5/M5, Molecular Devices). Values are expressed as percentage of ROS inhibition, where fluorescence from untreated cells under normal glucose conditions was set at 0% and untreated cells under high glucose conditions was set at 100%.

rat mesangial cells [5] = assay: DCFDA assay of ROS levels upon exogenous H2O2 treatment; type: cell-based; details: 200 μM H2O2, rat mesangial cells
Procedure: Dichlorofluorescin diacetate (DCFDA) assay measured ROS levels upon treatment with 200 μM H2O2.
DCFDA assay measured ROS levels upon treatment with 200 μM H2O2.

[6] = Rattus norvegicus, Mesangial cell, compound 0-200 μM, high (30 mM) glucose, N-acetyl-cysteine at 1 mM, ***p ≤ 0.001, read-out: Maximum % ROS Inhibition

## O=Cc1ccc2n1C[C@]1(C[C@H](O)[C@@H](CO)O1)OC2 [acortatarin A (1), acortatarin A]
[1]
  First oxidation potential: +1.74 V
  Second oxidation potential: 1.90 V
Rat mesangial cells [2]
  Antioxidant activity as reported (in words): complete inhibition of ROS induction at higher concentrations
Rat mesangial cells [2]; listed as Acortatarin A
  Antioxidant activity as reported (in words): significantly attenuating high glucose-induced generation of ROS
Rat mesangial cells [2]; rat mesangial cell model, intracellular ROS levels, read-out: IC50 against hyperglycemia-induced oxidative stress, as recently reported
  IC50: 4.9 µM
Mesangial cells
  Effect on high glucose-induced extracellular matrix production: prevent
[3]
  Reactivity to equimolar H2O2, OH radical and peroxynitrite: unreactive
Rat mesangial cells [4]; compound 0-200 μM, high (30 mM) glucose
  IC50: 4.9 µM
Rat mesangial cells [4]; compound 0-200 μM, high (30 mM) glucose, N-acetyl-cysteine at 1 mM, ***p ≤ 0.001
  Maximum % ROS Inhibition: 100%***
Rat mesangial cells [4]
  Antioxidant activity against hyperglycemia-induced ROS generation (in words): complete inhibition of ROS induction at higher concentrations
  Concentration required for complete inhibition (ROS production reduced to normal levels): 20 µM
Rat mesangial cells [5]
  Block of the direct effect of exogenous H2O2 on ROS levels: does not block

## O=CC[C@H](O)[C@H](O)CO [2-deoxy-D-ribose]
Rat mesangial cells [4]; Rattus norvegicus, Mesangial cell, compound 0-200 μM, high (30 mM) glucose
  IC50: > 200 µM

## O=Cc1ccc2n1CC1(CC(O)C(CO)O1)OC2 [L-acortatarin A]
Rat mesangial cells [4]
  Antioxidant activity against hyperglycemia-induced ROS generation (in words): inactive

## O=Cc1cccc2c1C[C@]1(C[C@H](O)[C@@H](CO)O1)OC2 [formylbenzene 8, (2S,4S,5R)-4-hydroxy-5-(hydroxymethyl)-4,5-dihydro-3H-spiro[furan-2,3′-isochromane]-5′-carbaldehyde]
Rat mesangial cells [4]; [6]
  inhibition: 100%

## OC[C@H]1O[C@@]2(Cc3ccccc3CO2)C[C@@H]1O (single isomer, unassigned) [desformylbenzene 7]
Rat mesangial cells [4]; [6]
  inhibition: 100%
Rat mesangial cells [4]
  Concentration required for complete inhibition (ROS production reduced to normal levels): 5 µM
Rat mesangial cells [5]
  Block of the direct effect of exogenous H2O2 on ROS levels: does not block

## CC(=O)N[C@@H](CS)C(=O)O [N-acetyl-cysteine]
Rat mesangial cells [4]; [6]
  inhibition at 1000 µM: 100%

## O=Cc1ccc2n1C[C@@]1(OC2)O[C@H](CO)[C@@H](O)[C@@H]1O.c1ccccc1 [Acortatarin B, acortatarin B]
Rat mesangial cells [2]
  Antioxidant activity as reported (in words): significantly attenuating high glucose-induced generation of ROS
